# Results: US12440484B2, “1,3,4-oxadiazole homophthalimide derivative compounds as histone deacetylase 6 inhibitor, and the pharmaceutical composition comprising the same” (Chong Kun Dang Pharmaceutical Corp., priority 2019, dated 2025)
# Key:
# HDAC6 human recombinant = HDAC6 human recombinant (Homo sapiens (Human), UniProt Q9UBN7); experiment: HDAC enzyme activity inhibition (in vitro), HDAC6 assay; assay type: biochemical; conditions: samples at 0.1, 1, 10, 100 and 1000 nM; 37° C. 60 minutes; fluorescence Ex 390, Em 460
# HDAC1 = HDAC1 (Homo sapiens (Human), UniProt Q13547); experiment: HDAC enzyme activity inhibition (in vitro), HDAC1 Fluorimetric Drug Discovery Assay Kit; assay type: biochemical; conditions: samples at 100, 1000 and 10000 nM; 37° C. 60 minutes; fluorescence Ex 390, Em 460
# HDAC1, sequence (Q13547 whole entry): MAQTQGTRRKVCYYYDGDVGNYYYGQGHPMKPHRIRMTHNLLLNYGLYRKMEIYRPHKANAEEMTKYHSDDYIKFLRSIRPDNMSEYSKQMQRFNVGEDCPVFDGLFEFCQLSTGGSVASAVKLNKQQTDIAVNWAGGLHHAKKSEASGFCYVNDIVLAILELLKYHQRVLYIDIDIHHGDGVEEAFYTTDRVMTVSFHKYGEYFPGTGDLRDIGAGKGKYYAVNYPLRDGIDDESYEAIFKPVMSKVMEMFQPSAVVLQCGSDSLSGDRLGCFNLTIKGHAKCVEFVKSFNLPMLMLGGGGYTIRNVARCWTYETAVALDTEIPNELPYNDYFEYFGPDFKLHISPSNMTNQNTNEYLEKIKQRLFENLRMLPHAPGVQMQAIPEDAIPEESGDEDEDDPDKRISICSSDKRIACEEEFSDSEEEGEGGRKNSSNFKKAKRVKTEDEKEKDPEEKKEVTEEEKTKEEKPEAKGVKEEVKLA
# HDAC6 human recombinant, sequence (Q9UBN7 whole entry): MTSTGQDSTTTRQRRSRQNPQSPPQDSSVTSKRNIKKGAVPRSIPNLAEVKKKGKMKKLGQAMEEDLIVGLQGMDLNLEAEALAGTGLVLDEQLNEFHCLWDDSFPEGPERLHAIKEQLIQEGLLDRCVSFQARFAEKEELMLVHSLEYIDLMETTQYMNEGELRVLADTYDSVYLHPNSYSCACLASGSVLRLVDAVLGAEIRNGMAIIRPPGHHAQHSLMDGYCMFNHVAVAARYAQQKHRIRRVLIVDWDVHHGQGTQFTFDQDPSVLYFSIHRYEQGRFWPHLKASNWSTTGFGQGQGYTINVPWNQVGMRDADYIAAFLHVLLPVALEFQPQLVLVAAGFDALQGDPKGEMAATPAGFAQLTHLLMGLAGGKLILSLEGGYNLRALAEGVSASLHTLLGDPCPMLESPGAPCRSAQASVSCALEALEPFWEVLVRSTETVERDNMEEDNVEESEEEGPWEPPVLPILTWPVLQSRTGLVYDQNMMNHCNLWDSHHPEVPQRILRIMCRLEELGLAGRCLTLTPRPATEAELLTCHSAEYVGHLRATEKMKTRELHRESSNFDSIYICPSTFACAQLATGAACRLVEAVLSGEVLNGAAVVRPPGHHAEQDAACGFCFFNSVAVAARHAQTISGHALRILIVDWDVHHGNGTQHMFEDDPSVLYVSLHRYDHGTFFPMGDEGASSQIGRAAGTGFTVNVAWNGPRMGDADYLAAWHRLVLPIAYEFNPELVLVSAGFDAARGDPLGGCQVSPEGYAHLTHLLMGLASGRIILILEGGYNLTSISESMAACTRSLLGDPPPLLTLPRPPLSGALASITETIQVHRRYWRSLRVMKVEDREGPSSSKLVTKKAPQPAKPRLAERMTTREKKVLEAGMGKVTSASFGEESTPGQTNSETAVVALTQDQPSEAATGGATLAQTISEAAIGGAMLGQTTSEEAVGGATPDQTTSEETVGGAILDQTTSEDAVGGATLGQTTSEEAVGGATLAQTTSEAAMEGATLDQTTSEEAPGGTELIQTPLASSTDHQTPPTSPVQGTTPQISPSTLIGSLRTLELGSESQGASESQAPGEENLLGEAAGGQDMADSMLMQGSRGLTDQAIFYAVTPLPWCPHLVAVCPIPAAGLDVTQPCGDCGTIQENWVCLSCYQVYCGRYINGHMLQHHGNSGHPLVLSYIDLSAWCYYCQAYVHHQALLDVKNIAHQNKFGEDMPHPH
SMILES,IC50 (HDAC6 human recombinant) [µM],IC50 (HDAC1) [µM]
"Cn1c(=O)n(Cc2ccc(-c3nnc(C(F)F)o3)cn2)c(=O)c2cc(Br)ccc21 [Compound 86, 6-bromo-3-((5-(5-(difluoromethyl)-1,3,4-oxadiazole-2-yl)pyridine-2-yl)methyl)-1-methylquinazoline-2,4(1H,3H)-dione]",0.04,> 10
"CC1(C)C(=O)N(Cc2ccc(-c3nnc(C(F)F)o3)cn2)C(=O)c2ccc(N3CCN(CC(F)(F)C(F)(F)C(F)(F)F)CC3)cc21 [Compound 140, 2-((5-(5-(difluoromethyl)-1,3,4-oxadiazole-2-yl)pyridine-2-yl)methyl)-6-(4-(2,2,3,3,4,4,4-heptafluorobutyl)piperazine-1-yl)-4,4-dimethylisoquinoline-1,3(2H,4H)-dione]",0.535,> 10
"CC1(C)C(=O)N(Cc2ccc(-c3nnc(C(F)F)o3)cn2)C(=O)c2c(N3CCOCC3)cccc21 [Compound 83, 2-((5-(5-(difluoromethyl)-1,3,4-oxadiazole-2-yl)pyridine-2-yl)methyl)-4,4-dimethyl-8-morpholinoisoquinoline-1,3(2H,4H)-dione]",0.098,> 10
"COCCn1c(=O)c2ccccc2n(Cc2ccc(-c3nnc(C(F)F)o3)cc2)c1=O [Compound 75, 1-(4-(5-(difluoromethyl)-1,3,4-oxadiazole-2-yl)benzyl)-3-(2-methoxyethyl)quinazoline-2,4(1H,3H)-dione]",0.368,> 10
"CC1(C)C(=O)N(Cc2ccc(-c3nnc(C(F)F)o3)cn2)C(=O)c2ccc(-c3ccoc3)cc21 [Compound 102, 2-((5-(5-(difluoromethyl)-1,3,4-oxadiazole-2-yl)pyridine-2-yl)methyl)-6-(furan-3-yl)-4,4-dimethylisoquinoline-1,3(2H,4H)-dione]",0.03,> 10
"CC1(C)C(=O)N(Cc2ccc(-c3nnc(C(F)F)o3)cn2)C(=O)c2cc(-c3cccc4[nH]ccc34)ccc21 [Compound 115, 2-((5-(5-(difluoromethyl)-1,3,4-oxadiazole-2-yl)pyridine-2-yl)methyl)-7-(1H-indole-4-yl)-4,4-dimethylisoquinoline-1,3(2H,4H)-dione]",0.059,> 10
"CC1(C)C(=O)N(Cc2ccc(-c3nnc(C(F)F)o3)cn2)C(=O)c2cc(C3=CC[S+]([O-])CC3)ccc21 (centres unmarked) [Compound 123, 2-((5-(5-(difluoromethyl)-1,3,4-oxadiazole-2-yl)pyridine-2-yl)methyl)-4,4-dimethyl-7-(1-oxydo-3,6-dihydro-2H-thiopyran-4-yl)isoquinoline-1,3(2H,4H)-dione]",0.017,> 10
"CC1(C)C(=O)N(Cc2ccc(-c3nnc(C(F)F)o3)cn2)C(=O)c2ccc(N3CCN(C(C)(C)C)CC3)cc21 [Compound 36, 6-(4-(tert-butyl)piperazine-1-yl)-2-((5-(5-(difluoromethyl)-1,3,4-oxadiazole-2-yl)pyridine-2-yl)methyl)-4,4-dimethylisoquinoline-1,3(2H,4H)-dione]",0.024,> 10
"CN(C)CCn1c(=O)n(Cc2ccc(-c3nnc(C(F)F)o3)cn2)c(=O)c2ccccc21 [Compound 22, 3-((5-(5-(difluoromethyl)-1,3,4-oxadiazole-2-yl)pyridine-2-yl)methyl)-1-(2-(dimethylamino)ethyl)quinazoline-2,4(1H,3H)-dione]",0.21,> 10

# The remaining compounds from weak to strong by IC50 (HDAC6 human recombinant), led by results:
IC50 (HDAC6 human recombinant) [µM],IC50 (HDAC1) [µM],SMILES
0.513,> 10,"O=C1c2ccccc2C2(CCC2)C(=O)N1Cc1ccc(-c2nnc(C(F)F)o2)cc1 [Compound 5, 2′-(4-(5-(difluoromethyl)-1,3,4-oxadiazole-2-yl)benzyl)-1′H-spiro[cyclobutane-1,4′-isoquinoline]-1′,3′(2′H)-dione]"
0.342,> 10,"CC1(C)C(=O)N(Cc2ccc(-c3nnc(C(F)F)o3)cn2)C(=O)c2ccc(N3CCN(CC4CCCCC4)CC3)cc21 [Compound 48, 6-(4-(cyclohexylmethyl)piperazine-1-yl)-2-((5-(5-(difluoromethyl)-1,3,4-oxadiazole-2-yl)pyridine-2-yl)methyl)-4,4-dimethylisoquinoline-1,3(2H,4H)-dione]"
0.118,> 10,"CN1CCN(c2ccc3c(c2)C(C)(C)C(=O)N(Cc2ncc(-c4nnc(C(F)F)o4)cn2)C3=O)CC1 [Compound 153, 2-((5-(5-(difluoromethyl)-1,3,4-oxadiazole-2-yl)pyrimidine-2-yl)methyl)-4,4-dimethyl-6-(4-methylpiperazine-1-yl)isoquinoline-1,3(2H,4H)-dione]"
0.1,> 10,"CC1(C)C(=O)N(Cc2ccc(-c3nnc(C(F)F)o3)cn2)C(=O)c2cc(C3CCN(CC(F)(F)F)CC3)ccc21 [Compound 135, 2-((5-(5-(difluoromethyl)-1,3,4-oxadiazole-2-yl)pyridine-2-yl)methyl)-4,4-dimethyl-7-(1-(2,2,2-trifluoroethyl)piperidine-4-yl)isoquinoline-1,3(2H,4H)-dione]"
0.059,> 10,"CC1(C)C(=O)N(Cc2ccc(-c3nnc(C(F)F)o3)cn2)C(=O)c2ccc(-c3ccccc3F)cc21 [Compound 103, 2-((5-(5-(difluoromethyl)-1,3,4-oxadiazole-2-yl)pyridine-2-yl)methyl)-6-(2-fluorophenyl)-4,4-dimethylisoquinoline-1,3(2H,4H)-dione]"
0.059,> 10,"Cn1c(=O)n(Cc2ccc(-c3nnc(C(F)F)o3)cn2)c(=O)c2cc(F)ccc21 [Compound 70, 3-((5-(5-(difluoromethyl)-1,3,4-oxadiazole-2-yl)pyridine-2-yl)methyl)-6-fluoro-1-methylquinazoline-2,4(1H,3H)-dione]"
0.058,> 10,"CC1(C)C(=O)N(Cc2ccc(-c3nnc(C(F)F)o3)cn2)C(=O)c2cc(C3CCN(C4CCOC4)CC3)ccc21 (centres unmarked) [Compound 146, 2-((5-(5-(difluoromethyl)-1,3,4-oxadiazole-2-yl)pyridine-2-yl)methyl)-4,4-dimethyl-7-(1-(tetrahydrofuran-3-yl)piperidine-4-yl)isoquinoline-1,3(2H,4H)-dione]"
0.049,> 10,"CC1(C)C(=O)N(Cc2ccc(-c3nnc(C(F)F)o3)cn2)C(=O)c2ccc(N3CCN(C4CC4)CC3)cc21 [Compound 47, 6-(4-cyclopropylpiperazine-1-yl)-2-((5-(5-(difluoromethyl)-1,3,4-oxadiazole-2-yl)pyridine-2-yl)methyl)-4,4-dimethylisoquinoline-1,3(2H,4H)-dione]"
0.033,> 10,"CC1(C)C(=O)N(Cc2ccc(-c3nnc(C(F)F)o3)cn2)C(=O)c2ccc(C3CCN(C4CC5(COC5)C4)CC3)cc21 [Compound 63, 6-(1-(2-oxaspiro[3.3]heptane-6-yl)piperidine-4-yl)-2-((5-(5-(difluoromethyl)-1,3,4-oxadiazole-2-yl)pyridine-2-yl)methyl)-4,4-dimethylisoquinoline-1,3(2H,4H)-dione]"
0.017,> 10,"CC1(C)C(=O)N(Cc2ccc(-c3nnc(C(F)F)o3)cn2)C(=O)c2cc(-c3cccnc3)ccc21 [Compound 111, 2-((5-(5-(difluoromethyl)-1,3,4-oxadiazole-2-yl)pyridine-2-yl)methyl)-4,4-dimethyl-7-(pyridine-3-yl)isoquinoline-1,3(2H,4H)-dione]"
